Source: patent publication US20200223848A1, “DEGRADATION AGENT USING AUTOPHAGIC MECHANISM OF DAMAGED MITOCHONDRIA” (TOHOKU UNIVERSITY, priority 2017, published 2020)

Assays:
Format in all cases: cell-based
[1] = tested on: HeLa cells stably expressing EmGFP-HaloTag-Omp25; experiment: Living cell imaging of degradation of injured mitochondria (EmGFP-HaloTag-Omp25 green and MitoTracker Red CMXRos red fluorescence)
Experimental: HeLa cells cultured in Dulbecco's Modified Eagle Medium (DMEM) were transfected with the plasmid pEmGFP-HaloTag-Omp25 containing a gene sequence encoding the EmGFP-HaloTag-Omp25 fusion protein localized on the mitochondrial outer membrane, and were allowed to stably express the protein. As a result, mitochondria in the cells were able to be observed using green fluorescence as an indicator.
A red fluorescent dye MitoTracker Red CMXRos (Thermo Fisher Scientific, M7513) was added thereto, followed by incubation for 30 minutes to stain mitochondria. At this stage, the mitochondria in the cells had been stained in two colors by EmGFP-HaloTag-Omp25 and MitoTracker Red CMXRos. Subsequently, MitoTracker Red CMXRos in the medium was removed by medium exchange. Mitochondria to be biosynthesized after this operation can only be detected with green fluorescence, and are not to be detected with red fluorescence. This difference was utilized to observe the degradation process of mitochondria by living cell imaging.
The cells were divided into two groups. Indole-FBn was added to an experimental group at a final concentration of […] was not added to a control group. In order to observe living cells at a fixed point for a long period of time, a culture vessel was fixed to a stage-top incubator (37° C., 5% CO2) mounted on a fluorescence microscope (KEYENCE, BX9000), and all the subsequent operations were performed on the microscope. […]
The signals of EmGFP-HaloTag-Omp25 and MitoTracker Red CMXRos at the time of the addition of Indole-FBn (−10 h), the time of the addition of CCCP (0 h), 2 hours after the addition of CCCP (+2 h), […] after the addition of CCCP (+8 h), and 16 hours after the addition of CCCP (+16 h) are shown in FIG. 6 and FIG. 7. In the graphs, the intensities of the signals of EmGFP-HaloTag-Omp25 (green fluorescence) and MitoTracker Red CMXRos (red fluorescence) in the photographs shown in FIG. 6 are shown as relative values with the respective intensities at −10 h being defined as 1. […]

[2] = tested on: HeLa cells; experiment: Cytoprotective effect against mitochondrial injury induced by uncoupler CCCP (Hoechst33342 nuclear staining, DNA fragmentation, cell viability)
Excerpt: Assessment Method for Cytoprotective Effect of Compound of Example 3, (R)-2-Acetylamino-3-[2-amino-9-(4-fluoro-benzyl)-6-oxo-6,9-dihydro-1H-purin-8-ylsulfanyl]-N-{3-[2-(2-{3-[2-oxo-2-(2-phenyl-1H-indol-3-yl)-acetylamino]-propoxy}-ethoxy)-ethoxy]-propyl}-propionamide (Indole-FBn), Against Mitochondrial Injury, and Confirmation of Inhibition of Cytoprotective Effect with Autophagy Inhibitor (Bafilomycin A1: Baf A1)
Cell Viability under Condition of Treating Cells with Indole-FBn and CCCP (Test Group):
HeLa cells seeded in Dulbecco's Modified Eagle Medium (DMEM) in a 96-well plate at 30,000 cells/well were incubated under the conditions of 37° C./5% CO2 overnight. […]
Subsequently, the uncoupler CCCP was added at a final concentration of 10 μM, followed by further incubation for 2 hours to induce mitochondrial injury. Cells in each of which DNA fragmentation was found in the nucleus were judged to be dead cells, and cell viability was calculated by the following equation. […]
HeLa cells seeded in Dulbecco's Modified Eagle Medium (DMEM) in a 96-well plate at 30,000 cells/well were incubated under the conditions of 37° C./5% CO2 for 1 day, and then subjected to nuclear staining by Hoechst33342 staining. […] Cells in each of which DNA fragmentation was found in the nucleus were judged to be dead cells, and cell viability was calculated. […]

[3] = tested on: Detroit532 cells; experiment: JC-1 staining of mitochondrial membrane potential; details: Down syndrome patient foreskin-derived fibroblasts; 10 μM, incubation for 3 days
Experimental: Detroit532 cells, which were Down syndrome patient foreskin-derived fibroblasts, were cultured in Eagle's Minimum Essential Medium. The cells were divided into two groups. A compound (Indole-FBn) was added to an experimental group at a final concentration of 10 μM, and was not added to a control group, followed by incubation for 3 days (37° C., 5% CO2). The cells of each group were each stained with JC-1 (abcam, 113850).
The JC-1 dye accumulates in mitochondria having a normal membrane potential to emit red fluorescence. Meanwhile, its localization is lost from mitochondria having an abnormal membrane potential and green fluorescence is emitted. That is, in a JC-1 staining image, a lower “green/red fluorescence intensity ratio” means that the membrane potential of mitochondria is kept more normal. Staining images were analyzed with ImageJ (National Institute of Health), and the “green/red fluorescence intensity ratio” is shown as a graph. Error bars represent standard deviations obtained from data from three independent experiments.

In the case of `CC(=O)N[C@@H](CSc1nc2c(=O)[nH]c(N)nc2n1Cc1ccc(F)cc1)C(=O)NCCCOCCOCCOCCCNC(=O)C(=O)c1c(-c2ccccc2)[nH]c2ccccc12` [Indole-FBn, (R)-2-Acetylamino-3-[2-amino-9-(4-fluoro-benzyl)-6-oxo-6,9-dihydro-1H-purin-8-ylsulfanyl]-N-{3-[2-(2-{3-[2-oxo-2-(2-phenyl-1H-indol-3-yl)-acetylamino]-propoxy}-ethoxy)-ethoxy]-propyl}-propionamide], the “green and red signal intensities after the addition of CCCP” value ([1]; Indole-FBn-treated group, 2 h, 8 h after CCCP, relative to intensities at -10 h defined as 1) was “reduced”, the “removal of injured mitochondria and production of new mitochondria” value ([1]; living cell imaging experiment, overall conclusion) was “promoted both the removal of injured mitochondria and the production of new mitochondria” and the “green fluorescence intensity, comparison of 8 hours and 16 hours after the addition of CCCP” value ([1]; only in the Indole-FBn-treated group, indicates production of new mitochondria) was “increased”. The “cytoprotective effect under the CCCP-treated condition in coexistence of autophagy inhibitor Baf A1” value ([2]; Baf A1 200 nM added 2 hours before Indole-FBn treatment, CCCP 10 μM) was “significantly inhibited”, the “cell death due to mitochondrial injury (cell viability)” value ([2]; Indole-FBn 1 μM for 10 hours, then CCCP 10 μM for 2 hours, versus non-Indole-FBn-treated control) was “significantly suppressed cell death” and the “quality of mitochondria (JC-1 green/red fluorescence intensity ratio, membrane potential)” value [3] was “significantly improved”.
